The source of these data is patent publication US6664224B2, “Quaternary ammonium salt and process for the preparation thereof” (priority 2000, dated 2003).

The MIC is the least concentration at which growth counts as inhibited. The low end stands for greater potency, the high end for weaker potency.

For one data set, the system named is Erythrocyte. As to the kind of experiment: Minimum hemolytic activity concentration against erythrocyte. It is filed as cell-based. The following applies: human erythrocyte, 37° C. 1 hour, O.D.540, 50% hemolysis. Here is the method: Human blood was collected. The sample blood was then mixed with the equal amount of alsebar solution (glucose: 2.05 g; NaCl: 0.42 g; sodium citrate: 0.8 g; citric acid: 0.55 g; pH: 6.1). The mixture was then stored at a temperature of 4° C. Shortly before used for experiment, the alsebar stored blood was subjected to centrifugal separation. Thus, the supernatant liquid and the leukocyte layer on the erythrocyte were removed. To the erythrocyte was then added PBS in an amount of […] that of the erythrocyte to obtain a 50% erythrocyte. 10 μl of the 50% erythrocyte was then mixed with 990 μl of each of chemicals which had been diluted with PBS in amounts varying stepwise. The erythrocyte was acted upon by the chemical at a temperature of 37° C. for 1 hour. The mixture was then subjected to centrifugal separation. The supernatant liquid was collected for the measurement of the optical density at 540 nm (O.D.540). Separately, the foregoing procedure was followed except that no chemicals were used to prepare a 0% hemolytic control. The foregoing procedure was followed except that Milliq water was used instead of PBS to prepare a 100% hemolytic control. For the minimum hemolytic activity concentration of chemical, the minimum concentration at which the hemolytic concentration is […] was determined.
On to `CCCCCCCC[n+]1ccc(SCc2ccc(CSc3cc[n+](CCCCCCCC)cc3)cc2)cc1.[I-].[I-]` [Example I-8, 4,4′-(p-xylyldithio)-bis(1-octylpyridinium iodide), reference compound], for which the “Minimum hemolytic activity concentration Erythrocyte” value is recorded as 50 ppm.
Take `CCCCC[N+](C)(CCCCC)Cc1c(C)c(C)c(C[N+](C)(CCCCC)CCCCC)c(C)c1C.[Cl-].[Cl-]` [BAMD-5, 1,4-bis(N,N-dipentyl-N-methylammoniomethyl)-2,3,5,6-tetramethylphenylene dichloride]: the “Minimum hemolytic activity concentration Erythrocyte” value was found to be 800 ppm.
On to “1,4-bis(N,N-dipentyl-N-methylammoniomethyl)phenylene di-p-tolyenesulfonate [Example 4BAMP-5S]”, for which the “Minimum hemolytic activity concentration Erythrocyte” value came to 400 ppm.
`CCCCCCCCCCCC[N+](C)(C)Cc1ccc(C[N+](C)(C)CCCCCCCCCCCC)cc1.[Cl-].[Cl-]` [Example 4BADMP-12C, 1,4-bis(N-dodecyl-N,N-dimethylammoniomethyl)phenylene dichloride, reference compound]: the “Minimum hemolytic activity concentration Erythrocyte” value stood at 12.5 ppm.

Another data set concerns Escherichia coli K12 W 3110. Nature of the data set: Minimum development inhibiting concentration (MIC) against bacteria, broth dilution method. It counts as cell-based. The following applies: 37° C. 24 hours. Here is the method: A bacteria solution in stationary state which had been adjusted with a nutrient broth according to an ordinary broth dilution method such that the concentration of bacterial suspension reached 10^6 cell/ml was added to chemical solutions having concentrations which vary stepwise where it was then allowed to stand at a temperature of 37° C. for 24 hours for culture. The bacteria solution was then examined to see if the proliferation of bacteria occurred. Thus, MIC was determined.
Escherichia coli K12 W 3110 was used as a sample bacterium. Compounds obtained in Examples 1 to 9 and benzalkonium chloride prepared in Comparative Example 1 were used as test samples.
The compounds obtained in Examples 10 to 19 and benzalkonium chloride were determined for MIC value against Escherichia coli K12 W 3110 in the same manner as in Test Example 3.
On the technique in general: Broth dilution looks for growth in wells or tubes with falling amounts of substance.
“1,4-bis(N,N-dioctyl-N-methylammoniomethyl)phenylene di-p-toluenesulfonate [Example 4BAMP-8S]”: the “MIC Escherichia coli K12 W 3110” value is on record as 1 ppm.
On to `CCCCCC[N+](C)(CCCCCC)Cc1cccc(C[N+](C)(CCCCCC)CCCCCC)c1.[Cl-].[Cl-]` [Example 3BAMP-6C, 1,3-bis(N,N-dihexyl-N-methylammoniomethyl)phenylene dichloride], for which the “MIC Escherichia coli K12 W 3110” value came out at 1 ppm.
Consider “1,4-bis(N,N-butyl-N-methylammoniomethyl)-2,3,5,6-tetramethylphenylene dichloride [BAMD-4]”, for which the “MIC Escherichia coli K12 W 3110” value worked out at 16 ppm.
As for `CCCCCCCC[N+](C)(CCCCCCCC)Cc1ccc(C[N+](C)(CCCCCCCC)CCCCCCCC)cc1.[Cl-].[Cl-]` [Example 4BAMP-8C, 1,4-bis(N,N-dioctyl-N-methylammoniomethyl)phenylene dichloride], the “MIC Escherichia coli K12 W 3110” value is reported as 1 ppm.
`CCCCCCCC[N+](C)(CCCC)Cc1ccc(C[N+](C)(CCCC)CCCCCCCC)cc1.[I-].[I-]` (centres unmarked) [4BAMP-4, 8I, 1,4-bis(N-butyl-N-octyl-N-methylammoniomethyl)phenylene diiodide]: the “MIC Escherichia coli K12 W 3110” value was 2 ppm.
The same measure, in the same setting: then `CCCCC[N+](C)(CCCCC)Cc1c(C)c(C)c(C[N+](C)(CCCCC)CCCCC)c(C)c1C.[Cl-].[Cl-]` [BAMD-5, 1,4-bis(N,N-dipentyl-N-methylammoniomethyl)-2,3,5,6-tetramethylphenylene dichloride], with 2 ppm.
Turning to “1,4-bis(N,N-dipentyl-N-methylammoniomethyl)phenylene di-p-tolyenesulfonate [Example 4BAMP-5S]”, the “MIC Escherichia coli K12 W 3110” value is on record as 16 ppm.
Consider “1,4-bis(N,N-dioctyl-N-methylammoniomethyl)-2,3,5,6-tetramethylphenylene dichloride [BAMD-8]”, for which the “MIC Escherichia coli K12 W 3110” value was 1 ppm.
With `CCCCCC[N+](C)(CCCCCC)Cc1ccccc1C[N+](C)(CCCCCC)CCCCCC.[Cl-].[Cl-]` [Example 2BAMP-6C, 1,2-bis(N,N-dihexyl-N-methylammoniomethyl)phenylene dichloride], the “MIC Escherichia coli K12 W 3110” value is 1 ppm.
For `CCCCCC[N+](C)(CCCC)Cc1ccc(C[N+](C)(CCCC)CCCCCC)cc1.[I-].[I-]` (centres unmarked) [4BAMP-4, 6I, 1,4-bis(N-butyl-N-hexyl-N-methylammoniomethyl)phenylene diiodide], the “MIC Escherichia coli K12 W 3110” value came out at 16 ppm.

The data set is the same for the next values; noted with them: Escherichia coli, K12W3110, 37° C. 24 hours.
`CCCC[N+](C)(CCCC)Cc1c(C)cc(C)c(C[N+](C)(CCCC)CCCC)c1C.[Cl-].[Cl-]` [BAMT-4, 2,4-bis(N,N-dibutyl-N-methylammoniomethyl)-1,3,5-trimethylbenzene dichloride] came in with an MIC of 8 µg/mL.
Turning to `CCCCCCCC[N+](C)(CCCCCC)Cc1c(C)cc(C)c(C[N+](C)(CCCCCC)CCCCCCCC)c1C.[Cl-].[Cl-]` (centres unmarked) [BAMT-6, 8, 2,4-bis(N-octyl-N-hexyl-N-methylammoniomethyl)-1,3,5-trimethylbenzene dichloride], the MIC was found to be 1 µg/mL.
Compound `CCCCCCCC[N+](C)(CCCCCCCC)Cc1c(C)cc(C)c(C[N+](C)(CCCCCCCC)CCCCCCCC)c1C.[Cl-].[Cl-]` [BAMT-8, 2,4-bis(N,N-dioctyl-N-methylammoniomethyl)-1,3,5-trimethylbenzene dichloride] had an MIC of 1 µg/mL.
